Measurements: US12263172B2, “Toll-like receptor agonists for use in the treatment of hepatitis b” (priority 2019, dated 2025)

Assays:
[1] = target: T1, monkey TLR7 (Macaca fascicularis, UniProt B3Y652); test: activation of monkey TLR7 (LEC); format: cell-based
T1 sequence (B3Y652 1-1049): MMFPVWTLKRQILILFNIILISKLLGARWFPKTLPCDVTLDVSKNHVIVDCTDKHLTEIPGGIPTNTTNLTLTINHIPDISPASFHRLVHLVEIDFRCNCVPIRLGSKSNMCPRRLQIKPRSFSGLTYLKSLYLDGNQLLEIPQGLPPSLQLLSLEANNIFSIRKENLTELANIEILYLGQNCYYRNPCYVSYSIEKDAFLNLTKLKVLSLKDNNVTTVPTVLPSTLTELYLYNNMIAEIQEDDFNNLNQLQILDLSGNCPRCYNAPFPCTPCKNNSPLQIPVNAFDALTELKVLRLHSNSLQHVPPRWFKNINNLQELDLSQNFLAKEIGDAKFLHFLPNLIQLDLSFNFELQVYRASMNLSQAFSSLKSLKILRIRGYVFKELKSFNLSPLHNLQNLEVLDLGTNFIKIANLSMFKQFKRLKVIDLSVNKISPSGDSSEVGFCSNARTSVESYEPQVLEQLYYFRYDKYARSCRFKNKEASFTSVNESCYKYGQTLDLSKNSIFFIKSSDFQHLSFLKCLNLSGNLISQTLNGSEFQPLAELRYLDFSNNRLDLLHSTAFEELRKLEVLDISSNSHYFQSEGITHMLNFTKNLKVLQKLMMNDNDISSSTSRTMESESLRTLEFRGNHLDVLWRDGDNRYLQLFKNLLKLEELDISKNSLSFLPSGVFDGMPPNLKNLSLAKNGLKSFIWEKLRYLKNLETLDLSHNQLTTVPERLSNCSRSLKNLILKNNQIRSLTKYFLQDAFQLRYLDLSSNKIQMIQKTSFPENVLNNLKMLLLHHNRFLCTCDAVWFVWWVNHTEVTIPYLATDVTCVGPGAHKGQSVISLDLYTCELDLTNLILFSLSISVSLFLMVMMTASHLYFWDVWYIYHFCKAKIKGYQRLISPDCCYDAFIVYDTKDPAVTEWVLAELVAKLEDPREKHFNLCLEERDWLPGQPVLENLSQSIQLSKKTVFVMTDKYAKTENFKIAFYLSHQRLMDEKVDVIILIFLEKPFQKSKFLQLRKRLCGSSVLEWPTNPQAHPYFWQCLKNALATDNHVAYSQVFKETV
Description: (§1) Exposure increased more than dose-proportionally at low doses. Variability in exposure was high. • In vitro plasma protein binding was between 79.6% and 94.2% in animals and humans. Volume of distribution after intravenous dosing was high. […] Main metabolic pathways were oxygenation, hydrogenation, dehydrogenation, dealkylation, acetylation, glucuronidation, and/or glutathione conjugation. • In rats, >80% of drug-related material was found in feces, 11% to 20% in bile, and <4% in urine. […] There were no effects on embryofetal development up to 1 mg/kg/dose in rats and 30 mg/kg/dose in rabbits.

[2] = target: CYP3A4 (Homo sapiens, UniProt P08684); test: CYP3A4 substrate and inhibition; format: in vitro ADME
Description: as §1

Chain of CYP3A4 (P08684 whole entry): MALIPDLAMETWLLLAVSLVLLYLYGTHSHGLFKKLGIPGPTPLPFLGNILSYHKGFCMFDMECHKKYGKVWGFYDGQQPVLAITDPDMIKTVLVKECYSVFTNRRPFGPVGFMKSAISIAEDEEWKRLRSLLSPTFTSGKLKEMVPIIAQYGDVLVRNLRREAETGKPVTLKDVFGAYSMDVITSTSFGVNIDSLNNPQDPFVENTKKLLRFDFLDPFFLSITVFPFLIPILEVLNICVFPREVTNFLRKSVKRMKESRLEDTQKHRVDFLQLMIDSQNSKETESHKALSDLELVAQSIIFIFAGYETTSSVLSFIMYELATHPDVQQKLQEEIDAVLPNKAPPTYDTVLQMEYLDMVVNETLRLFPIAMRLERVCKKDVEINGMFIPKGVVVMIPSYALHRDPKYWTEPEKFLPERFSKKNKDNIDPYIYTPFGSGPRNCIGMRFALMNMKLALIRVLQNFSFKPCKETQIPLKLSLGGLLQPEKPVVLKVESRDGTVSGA

SMILES: CCCCOc1nc(N)c2[nH]cc(Cc3ccc(CN4CCCC4)cc3)c2n1 [Compound 4]
- lowest effective concentration (LEC) for activation of monkey TLR7 [1]: < 119 nM
- CYP3A4 substrate [2]: substrate
- IC50 [2]: 590 nM
